Data as given in ChEMBL document CHEMBL1124205, “Synthesis and antiviral evaluation of 6'-substituted aristeromycins: potential mechanism-based inhibitors of S-adenosylhomocysteine hydrolase” (J Med Chem, 1988).

Experiments:
HEp-2 = test: Cytotoxic concentration against HEP-2 cells; assay type: functional, cell-based; details: Homo sapiens
Human alphaherpesvirus 1 [1] = test: Concentration at which 50% of the herpes simplex virus type 1 HSV-1 (F) induced cytopathic effect are inhibited is determined; assay type: functional; details: read-out: ED50 (the source's name)
Human alphaherpesvirus 2 [2] = test: Antiviral activity against herpes simplex virus type 2 HSV-2 (F) expressed as viral rating (VR); assay type: functional
Human alphaherpesvirus 1 [3] = test: Antiviral activity against herpes simplex virus type 1 HSV-1 (F) expressed as viral rating (VR); assay type: functional
Human alphaherpesvirus 2 [4] = test: Concentration at which 50% of the herpes simplex virus type 2 […] (F) induced cytopathic effect are inhibited is determined; assay type: functional; details: read-out: ED50 (the source's name)
Vaccinia virus [5] = test: Antiviral activity against vaccinia virus in HEP -2 cells; assay type: functional, Orthopoxvirus vaccinia
Vaccinia virus [6] = details: read-out: ED50
Vaccinia virus [7] = test: Inhibition of vaccinia virus induced cytopathic effects in HEP -2 cells; assay type: functional; details: Orthopoxvirus vaccinia, read-out: ED50 (the source's name)

SMILES | Concentration (HEp-2) [µM] | EC50 (Human alphaherpesvirus 1 [1]) [µM] | VR (Human alphaherpesvirus 2 [2]) | VR (Human alphaherpesvirus 1 [3]) | EC50 (Human alphaherpesvirus 2 [4]) [µM] | VR (Vaccinia virus [5]) | EC50 (Vaccinia virus [6]) [µM] | EC50 (Vaccinia virus [7]) [µM]
Nc1nc2c(ncn2COC(CO)CO)c(=O)[nH]1 [GANCICLOVIR] | > 3200 | < 1 | 1.6 | 1.4 | 1 |  |  | 
Nc1ncnc2c1ncn2C1C(O)C(F)C(CO)C1O (stereo not drawn) | 225 | 225 | 0 | 0 | 225 |  |  | 
Nc1ncnc2c1ncn2[C@@H](C=O)O[C@@H](C=O)CO | 100 |  | 0 |  | > 3200 | 1.3 | 0.5 | 
C=C1C(CO)C(O)C(O)C1n1cnc2c(N)ncnc21 (stereo not drawn) | 50 | 16 | 0.3 | 0 | 5 | 0.9 | 0.55 | 
Nc1ncnc2c1ncn2C1C(O)C(O)C(CO)C1O (stereo not drawn) | > 320 | 100 | 0.3 | 0.6 | 100 | 0.8 | 18 | 
Nc1ncnc2c1ncn2[C@H]1[C@H](O)[C@H](O)[C@@H](CO)[C@H]1F | 320 | 10 | 0.4 | 0.4 | 10 | 0.8 |  | 0.5
Nc1ncnc2c1ncn2[C@H]1[C@H](O)[C@H](O)[C@@H](CO)[C@@H]1F | > 320 | 90 | 0.1 | 0.1 | 90 | 0.4 | 63 | 
